{
  "source": "patent US7812021B2",
  "about": "“Pyrrolidine aryl-ether as NK3 receptor antagonists” (Hoffmann-La Roche Inc., priority 2007, dated 2010)",
  "note": "pKi: −log10 of the molar value.",
  "data": [
    {"molecular_target": "T1, recombinant human NK3 receptor (Homo sapiens, UniProt P29371)", "T1 construct": "expressed in transfected cells; host or cells: HEK293 cells, transient expression; membranes", "T1 sequence (P29371 1-465)": "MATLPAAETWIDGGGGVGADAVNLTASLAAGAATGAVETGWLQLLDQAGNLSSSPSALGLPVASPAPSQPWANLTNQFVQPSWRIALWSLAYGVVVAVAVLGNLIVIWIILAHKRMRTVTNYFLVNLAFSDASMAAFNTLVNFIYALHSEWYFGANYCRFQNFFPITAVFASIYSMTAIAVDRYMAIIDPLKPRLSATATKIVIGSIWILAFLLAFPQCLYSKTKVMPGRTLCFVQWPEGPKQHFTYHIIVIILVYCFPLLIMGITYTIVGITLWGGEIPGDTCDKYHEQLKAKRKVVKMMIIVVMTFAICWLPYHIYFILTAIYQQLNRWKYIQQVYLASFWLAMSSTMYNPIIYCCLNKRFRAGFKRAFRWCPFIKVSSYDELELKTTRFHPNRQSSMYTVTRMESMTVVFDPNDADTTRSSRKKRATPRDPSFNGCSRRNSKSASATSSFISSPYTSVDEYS", "experiment": "[3H]SR142801 competition binding assay", "conditions": "membranes from HEK293 cells transiently expressing recombinant human NK3 receptor; [3H]SR142801 radioligand; Ki by Cheng-Prussoff", "experimental": "[^3H]SR142801 Competition Binding Assay\nhNK3 receptor binding experiment were performed using [^3H]SR142801 (Catalog No. TRK1035, specific activity: 74.0 Ci/mmol, Amersham, GE Healthcare UK limited, Buckinghamshire, UK) and membrane isolated from HEK293 cells transiently expressing recombinant human NK3 receptor. After thawing, the membrane homogenates were centrifuged at 48,000×g for 10 min at 4° C., the pellets were resuspended in the 50 mM Tris-HCl, 4 mM MnCl2, 1 μM phosphoramidon, 0.1% BSA binding buffer at pH 7.4 to a final assay concentration of 5 μg protein/well. For inhibition experiments, membranes were incubated with [^3H]SR142801 at a concentration equal to KD value of radioligand and 10 concentrations of the inhibitory compound (0.0003-10 μM) (in a total reaction volume of 500 μl) for 75 min at room temperature (RT). At the end of the incubation, membranes were filtered onto unit filter (96-well white microplate with bonded GF/C filter preincubated 1 h in 0.3% PEI+0.3% BSA, Packard BioScience, Meriden, Conn.) with a Filtermate 196 harvester (Packard BioScience) and washed 4 times with ice-cold 50 mM Tris-HCl, pH 7.4 buffer. Nonspecific binding was measured in the presence of 10 μM SB222200 for both radioligands. The radioactivity on the filter was counted (5 min) on a Packard Top-count microplate scintillation counter with quenching correction after addition of 45 μl of microscint 40 (Canberra Packard S. A., Zürich, Switzerland) and shaking for 1 h. Inhibition curves were fitted according to the Hill equation: y=100/(1+(x/IC50)^nH), where nH=slope factor using Excel-fit 4 software (Microsoft). IC50 values were derived from the inhibition curve and the affinity constant (Ki) values were calculated using the Cheng-Prussoff equation Ki=IC50/(1+[L]/KD) where [L] is the concentration of radioligand and KD is its dissociation constant at the receptor, derived from the saturation isotherm. All experiments were performed in duplicate and the mean±standard error (SEM) of the individual Ki values was calculated.", "values": [
      {"molecule": "C[C@@H](Oc1ccc(C(F)(F)F)cc1)[C@@H]1CN(C(=O)CN2CCC(N(C)S(C)(=O)=O)CC2)C[C@H]1c1ccc(Cl)c(Cl)c1", "note": "(racemic) [Example 20, N-[1-(2-{(3RS,4SR)-3-(3,4-Dichloro-phenyl)-4-[(RS)-1-(4-trifluoromethyl-phenoxy)-ethyl]-pyrrolidin-1-yl}-2-oxo-ethyl)-piperidin-4-yl]-N-methyl-methanesulfonamide]", "pKi": 7.23},
      {"molecule": "Cc1ccc(O[C@H](C)[C@@H]2CN(C(=O)N3CCN(S(C)(=O)=O)CC3)C[C@H]2c2ccc(Cl)c(Cl)c2)cc1", "note": "(racemic) [Example 31, [(3RS,4SR)-3-(3,4-Dichloro-phenyl)-4-((RS)-1-p-tolyloxy-ethyl)-pyrrolidin-1-yl]-(4-methanesulfonyl-piperazin-1-yl)-methanone]", "pKi": 7.23},
      {"molecule": "C[C@@H](Oc1ncc(Cl)cn1)[C@@H]1CN(C(=O)N2CCN(S(C)(=O)=O)CC2)C[C@H]1c1ccc(Cl)c(Cl)c1", "note": "(racemic) [Example 53, [(3SR,4RS)-3-[(RS)-1-(5-Chloro-pyrimidin-2-yloxy)-ethyl]-4-(3,4-dichloro-phenyl)-pyrrolidin-1-yl]-(4-methanesulfonyl-piperazin-1-yl)-methanone]", "pKi": 8.17},
      {"molecule": "C[C@H](Oc1ccc(C#N)cn1)[C@H]1CN(C(=O)N2CCC(C#N)CC2)C[C@@H]1c1ccc(Cl)c(Cl)c1", "note": "(racemic) [Example 71]", "pKi": 8.06},
      {"molecule": "C[C@@H](Oc1ccc(Cl)cc1)[C@@H]1CN(C(=O)CN2CCC(CO)CC2)C[C@H]1c1ccc(Cl)c(Cl)c1", "note": "(racemic) [Example 67, 1-[(3SR,4RS)-3-[(RS)-1-(4-Chloro-phenoxy)-ethyl]-4-(3,4-dichloro-phenyl)-pyrrolidin-1-yl]-2-(4-hydroxymethyl-piperidin-1-yl)-ethanone]", "pKi": 7.28},
      {"molecule": "CS(=O)(=O)N1CCN(C(=O)N2C[C@@H](COc3ccc(Cl)cn3)[C@H](c3ccc(Cl)c(Cl)c3)C2)CC1", "note": "(racemic) [Example 63]", "pKi": 7.92},
      {"molecule": "C[C@H](Oc1ccc(C#N)cc1)[C@@H]1CN(C(=O)N2CCN(S(C)(=O)=O)CC2)C[C@H]1c1ccc(Cl)c(Cl)c1", "note": "(racemic) [Example 45, 4-{(SR)-1-[(3SR,4RS)-4-(3,4-Dichloro-phenyl)-1-(4-methanesulfonyl-piperazine-1-carbonyl)-pyrrolidin-3-yl]-ethoxy}-benzonitrile]", "pKi": 7.02},
      {"molecule": "C[C@@H](Oc1ccc(Cl)cn1)[C@@H]1CN(C(=O)CCCCN2CCOCC2)C[C@H]1c1ccc(Cl)c(Cl)c1", "note": "(racemic) [Example 55, 1-[(3SR,4RS)-3-[(RS)-1-(5-Chloro-pyridin-2-yloxy)-ethyl]-4-(3,4-dichloro-phenyl)-pyrrolidin-1-yl]-5-morpholin-4-yl-pentan-1-one]", "pKi": 7.70},
      {"molecule": "C[C@@H](Oc1ncccn1)[C@@H]1CN(C(=O)N2CCN(S(C)(=O)=O)CC2)C[C@H]1c1ccc(Cl)c(Cl)c1", "note": "(racemic) [Example 42, [(3RS,4SR)-3-(3,4-Dichloro-phenyl)-4-[(RS)-1-(pyrimidin-2-yloxy)-ethyl]-pyrrolidin-1-yl}-(4-methanesulfonyl-piperazin-1-yl)-methanone]", "pKi": 7.16},
      {"molecule": "C[C@@H](Oc1ccc(C(F)(F)F)cc1)[C@@H]1CN(C(=O)N2CCN(CCN(C)C)CC2)C[C@H]1c1ccc(Cl)c(Cl)c1", "note": "(racemic) [Example 52]", "pKi": 7.37},
      {"molecule": "C[C@@H](Oc1ccc(Cl)cn1)[C@@H]1CN(C(=O)N2CC3(COC3)C2)C[C@H]1c1ccc(Cl)c(Cl)c1", "note": "(racemic) [Example 61, [(3SR,4RS)-3-[(RS)-1-(5-Chloro-pyridin-2-yloxy)-ethyl]-4-(3,4-dichloro-phenyl)-pyrrolidin-1-yl]-(2-oxa-6-aza-spiro[3.3]hept-6-yl)-methanone]", "pKi": 7.41},
      {"molecule": "C[C@@H](Oc1ccc(Cl)c(Cl)c1)[C@@H]1CN(C(=O)N2CCN(S(C)(=O)=O)CC2)C[C@H]1c1ccc(Cl)c(Cl)c1", "note": "(racemic) [Example 30, [(3SR,4RS)-3-[(RS)-1-(3,4-Dichloro-phenoxy)-ethyl]-4-(3,4-dichloro-phenyl)-pyrrolidin-1-yl]-(4-methanesulfonyl-piperazin-1-yl)-methanone]", "pKi": 7.10},
      {"molecule": "C[C@@H](Oc1ncc(F)cn1)[C@@H]1CN(C(=O)N2CCN(S(C)(=O)=O)CC2)C[C@H]1c1ccc(Cl)c(Cl)c1", "note": "(racemic) [Example 51, {(3RS,4SR)-3-(3,4-Dichloro-phenyl)-4-[(RS)-1-(5-fluoro-pyrimidin-2-yloxy)-ethyl]-pyrrolidin-1-yl}-(4-methanesulfonyl-piperazin-1-yl)-methanone]", "pKi": 7.63},
      {"molecule": "N-(1-{2-[(3SR,4RS)-[3-(RS)-1-(4-Chloro-phenoxy)-ethyl]-4-(3,4-dichloro-phenyl)-pyrrolidin-1-yl]-2-oxo-ethyl}-piperidin-4-yl)-N-methyl-acetamide [Example 65]", "pKi": 7.70},
      {"molecule": "C[C@H](Oc1ccc(C(F)(F)F)cn1)[C@H]1CN(C(=O)N2CCN(S(C)(=O)=O)CC2)C[C@@H]1c1ccc(Cl)c(Cl)c1", "note": "(racemic) [Example 69, {(3SR,4RS)-3-(3,4-Dichloro-phenyl)-4-[(SR)-1-(5-trifluoromethyl-pyridin-2-yloxy)ethyl]-pyrrolidin-1-yl}-(4-methanesulfonyl-piperazin-1-yl)-methanone]", "pKi": 8.25},
      {"molecule": "C[C@@H](Oc1ccc(F)cc1)[C@@H]1CN(C(=O)N2CCN(S(C)(=O)=O)CC2)C[C@H]1c1ccc(Cl)c(Cl)c1", "note": "(racemic) [Example 34, {(3RS,4SR)-3-(3,4-Dichloro-phenyl)-4-[(RS)-1-(4-fluoro-phenoxy)-ethyl]-pyrrolidin-1-yl}-(4-methanesulfonyl-piperazin-1-yl)-methanone]", "pKi": 7.40},
      {"molecule": "C[C@@H]1CN(C(=O)N2C[C@@H]([C@@H](C)Oc3ccc(C(F)(F)F)cc3)[C@H](c3ccc(Cl)c(Cl)c3)C2)CCN1S(C)(=O)=O", "note": "(mixture of isomers) [Example 27, {(3RS,4SR)-3-(3,4-Dichloro-phenyl)-4-[(RS)-1-(4-trifluoromethyl-phenoxy)-ethyl]-pyrrolidin-1-yl}-((R)-4-methanesulfonyl-3-methyl-piperazin-1-yl)-methanone]", "pKi": 8.02},
      {"molecule": "C[C@H](Oc1ccc(Cl)cc1)[C@@H]1CN(C(=O)N2CCN(S(C)(=O)=O)CC2)C[C@H]1c1ccc(Cl)c(Cl)c1", "note": "(racemic) [Example 48, [(3SR,4RS)-3-[(SR)-1-(4-Chloro-phenoxy)-ethyl]-4 (3,4-dichloro-phenyl)-pyrrolidin-1-yl]-(4-methanesulfonyl-piperazin-1-yl)-methanone]", "pKi": 7.17},
      {"molecule": "C[C@@H](Oc1ccc(F)c(Cl)c1)[C@@H]1CN(C(=O)N2CCN(S(C)(=O)=O)CC2)C[C@H]1c1ccc(Cl)c(Cl)c1", "note": "(racemic) [Example 41, [(3SR,4RS)-3-[(RS)-1-(3-Chloro-4-fluoro-phenoxy)-ethyl]-4-(3,4-dichloro-phenyl)-pyrrolidin-1-yl]-(4-methanesulfonyl-piperazin-1-yl)-methanone]", "pKi": 7.31},
      {"molecule": "C[C@@H](Oc1ccc(F)cn1)[C@@H]1CN(C(=O)N2CCN(S(C)(=O)=O)CC2)C[C@H]1c1ccc(Cl)c(Cl)c1", "note": "(racemic) [Example 59, {(3RS,4SR)-3-(3,4-Dichloro-phenyl)-4-[(RS)-1-(5-fluoro-pyridin-2-yloxy)-ethyl]-pyrrolidin-1-yl}-(4-methanesulfonyl-piperazin-1-yl)-methanone]", "pKi": 7.90},
      {"molecule": "CC(=O)N1CCN(CC(=O)N2C[C@@H]([C@@H](C)Oc3ccc(C(F)(F)F)cc3)[C@H](c3ccc(Cl)c(Cl)c3)C2)CC1", "note": "(racemic) [Example 24, 2-(4-Acetyl-piperazin-1-yl)-1-{(3RS,4SR)-3-(3,4-dichloro-phenyl)-4-[(RS)-1-(4-trifluoromethyl-phenoxy)-ethyl]-pyrrolidin-1-yl}-ethanone]", "pKi": 7.23},
      {"molecule": "C[C@@H](Oc1ccc(Cl)cc1)[C@@H]1CN(C(=O)N2CCN(S(C)(=O)=O)CC2)C[C@H]1c1ccc(Cl)c(Cl)c1", "note": "(mixture of isomers) [Example 36, [(3SR,4RS)-3-[(R)-1-(4-Chloro-phenoxy)-ethyl]-4-(3,4-dichloro-phenyl)-pyrrolidin-1-yl]-(4-methanesulfonyl-piperazin-1-yl)-methanone]", "pKi": 7.68}
    ]}
  ]
}
